Experimental data published in patent US20260355330A1, “CELL PENETRATING PEPTIDES AND USES THEREOF” (VECTIOPEP OÜ, priority 2022, published 2026).
Positions of bridges follow the written chain, without caps; N, C: chain ends. Non-standard residues stand in square brackets, D forms with d. Residues, ends and D or L forms follow the SMILES beside them. Chains are numbered I, II in the order given. *: point of attachment. Stearoyl = CCCCCCCCCCCCCCCCCC(=O)*; Palmitoyl = CCCCCCCCCCCCCCCC(=O)*; Dab = NCC[C@H](N)C(=O)O

What was measured:
CHO-K1 cells = assay: Delivery of reporter mRNA with CPPs in cell culture (luciferase luminescence 24 h post-transfection); type: cell-based; details: firefly luciferase mRNA, 0.1 μg per well, charge ratio 3:1, serum containing media, 24 h; RLU normalised to total protein in lysate
Description: FIG. 1: Delivery of reporter mRNA with CPPs in cell culture—evaluation of reporter levels post-transfection (relative light units normalised to total protein in the cell lysate (RLU/mg)). Naked mRNA treated cells were used as controls and Lipofectamine3000 (LF3000) was used to compare the transfection efficacy with a liposome-based transfection reagent.
Adherent CHO-K1 cells were grown in Dulbecco's Modified Eagle's Medium (DMEM), which were supplemented with 0.1 mM non-essential amino acids, 1.0 mM sodium pyruvate, 100 U/ml penicillin, and […]. For complete media, 10% (final) fetal bovine serum (FBS) was added. Cells were maintained in a humidified incubator at 37 °C, 5% CO2. Cell viability and confluence was assessed daily and the cell density was reduced regularly. For cell counting, we used the CytoSMART cell counter accompanied by 0.4% trypan blue staining prior measurement. The multi-well plates with cell cultures used for experiments were incubated in a humidified incubator at 37 °C, 5% CO2.
For in vitro experiments 0.1 μg of nucleic acid (plasmid DNA (pDNA) or mRNA) was used per 96-well plate well. For CPP/NA complex formation, the diluted NA was mixed with CPP in water. Complexes were formed based on the theoretical charge ratio (CR) of positive charges from the peptide in excess to the negative charges from nucleic acid backbone, at charge ratio 3:1 with peptide in excess. Commercial reagent Lipofectamine3000 (LF3000) was used according to the manufacturer's recommendations for the transfection of adherent cells.
For reporter luminescence (expressed from firefly luciferase encoding mRNA or plasmid pDNA) assessment in adherent cell culture, 10,000 cells per 96-well plate well were seeded in 100 μl of media one day prior to transfection. Shortly before transfection, cell media was replaced with 100 μl of serum containing (10% foetal bovine serum) DMEM media. CPPs and mRNA or pDNA were mixed at a charge ratio 3:1 in ultrapure water and incubated at room temperature before addition to cells in serum containing media. Cells were transfected with 0.1 μg of mLuc per well.
24 hours post-transfection, the media was aspirated, cells were washed with 1×PBS, and 30 μl of lysis buffer (0.1% Triton X100 in 1×PBS) was added. Cells were incubated with lysis buffer for 20 min. to lyse the cells. From the lysate, 20 μl was transferred to a black frame white well 96-well plate for luminescence measurement after addition of substrate luciferin (PerkinElmer) in buffer. The luminescence signal was detected with GloMax® 96 microplate luminometer equipped with GloMax® 1.9.2 software (Promega). RLU values were converted to RLU/mg by normalization to total protein in cell lysate, reflecting total number of cells. For protein detection, a Pierce™ BCA Protein Assay Kit was used.
The present inventors have previously reported CPPs developed from the NickFect (NF) and PepFect (PF) families for plasmid (pDNA), siRNA and miRNA delivery (see, e.g. WO 2020/144317, WO 2010/039088 and WO 2012/113846). With the emergence of mRNA-based therapeutics, it was decided to investigate peptides for their ability to deliver mRNA. It was assumed that CPPs that are efficient for siRNA and miRNA delivery, e.g. histidine containing CPPs (Porosk et. al. (2019)), may be good candidates for the delivery of mRNA. Therefore, CPPs from each main family (NF55-, PF14- and NF70-derived CPPs) were tested for mRNA delivery/transfection. Naked mRNA treated and untreated cells were used as control groups. LF3000 was used to compare the transfection efficacy of liposome-based transfection reagents with the CPPs (FIG. 1).

spleen of BALB/c mice = assay: In vivo delivery of mRNA with CPPs - reporter levels in the spleen; details: for Reporter levels in the spleen (RLU): mRNA, tail vein injection, spleens harvested 16 hours after single injection, whole tissue homogenate
Description: FIG. 5: Delivery of mRNA with CPPs in vivo—reporter levels in the spleen. Spleens were harvested post mortem 16 hours post-injection. The reporter levels (RLU) were evaluated from the whole tissue homogenate.
The transfection complexes (CPP/mRNA) were formed using 10 μg of mRNA mixed with each peptide at indicated charge ratios (CRs) in MQ water in a final volume of 100 μl. CRs were calculated theoretically and account for both the positive charges of the peptide and negative charges of the nucleic acid. The transfection complexes (CPP/mRNA and CPP/pDNA) were formed using 50 μg of mRNA mixed with each peptide at indicated charge ratios (CRs) in MQ water in a final volume of 168 μl. The complexes were incubated for 30 minutes at room temperature and then mixed with equal volume of 10% glucose (resulting in a final solution of 5% glucose in a total volume of 200 μl for 10 μg dose groups and 336 μl for 50 μg dose groups) and immediately injected intravenously via the tail vein.
The reporter gene (luciferase) expression levels were evaluated from the tissue homogenate post mortem 16-24 h after single injection.
CPPs and mRNA complexes were injected through the tail vein of BALB/c mice, spleens were harvested 16 hours after the single injection and reporter signal was measured from the whole tissue homogenate (FIG. 5 and Table 5).

## CCCCCCCCCCCCCCCCCC(=O)N[C@@H](C)C(=O)NCC(=O)N[C@@H](Cc1ccc(O)cc1)C(=O)N[C@@H](CC(C)C)C(=O)N[C@@H](CC(C)C)C(=O)NCC(=O)NCC[C@H](N)C(=O)N[C@@H](CC(C)C)C(=O)N[C@@H](CCCCN)C(=O)N[C@@H](C)C(=O)N[C@@H](CC(C)C)C(=O)N[C@@H](C)C(=O)N[C@@H](C)C(=O)N[C@@H](CC(C)C)C(=O)N[C@@H](C)C(=O)N[C@@H](C)C(=O)N[C@@H](CCCCN)C(=O)N[C@H](C(=O)N[C@@H](CC(C)C)C(N)=O)[C@@H](C)CC [NF436] (I: H-[Dab]LKALAALAAKIL-NH2 / II: Stearoyl-AGYLLG; amide I:1-II:C)
CHO-K1 cells
  Average RLU/mg (reporter levels post-transfection of mRNA): 380 000 000 RLU/mg
Spleen of BALB/c mice; in words, FIG. 5 / Table 5
  Efficacy of mRNA delivery into the spleen in vivo: highest reporter levels after mRNA delivery into the spleen in vivo
Spleen of BALB/c mice; in words, comparator NF54 and/or NF55
  Delivery of mRNA in vivo compared to NF54 and/or NF55: significantly improved delivery of mRNA in vivo over both NF54 and NF55
Spleen of BALB/c mice
  Reporter levels in the spleen (RLU): 825 783 RLU
Spleen of BALB/c mice; vs NF70, 16 h post-injection
  mRNA in vivo spleen delivery efficiency relative to NF70: 100 times
Spleen of BALB/c mice; vs PF1452, 16 h post-injection
  mRNA in vivo spleen delivery efficiency relative to PF1452: 43 times

## CCCCCCCCCCCCCCCC(=O)N[C@@H](C)C(=O)NCC(=O)N[C@@H](Cc1ccc(O)cc1)C(=O)N[C@@H](CC(C)C)C(=O)N[C@@H](CC(C)C)C(=O)NCC(=O)NCCCC[C@H](N)C(=O)N[C@H](C(=O)N[C@@H](CC(N)=O)C(=O)N[C@@H](CC(C)C)C(=O)N[C@@H](CCCCN)C(=O)N[C@@H](C)C(=O)N[C@@H](CC(C)C)C(=O)N[C@@H](C)C(=O)N[C@@H](C)C(=O)N[C@@H](CC(C)C)C(=O)N[C@@H](C)C(=O)N[C@@H](CCCCN)C(=O)N[C@@H](C)C(=O)N[C@H](C(=O)N[C@@H](CC(C)C)C(N)=O)[C@@H](C)CC)[C@@H](C)CC [NF420] (I: H-KINLKALAALAKAIL-NH2 / II: Palmitoyl-AGYLLG; amide I:1-II:C)
CHO-K1 cells
  Average RLU/mg (reporter levels post-transfection of mRNA): 548 000 000 RLU/mg
Spleen of BALB/c mice
  Reporter levels in the spleen (RLU): 81 271 RLU

## CCCCCCCCCCCCCCCCCCCCCC(=O)N[C@@H](C)C(=O)NCC(=O)N[C@@H](Cc1ccc(O)cc1)C(=O)N[C@@H](CC(C)C)C(=O)N[C@@H](CC(C)C)C(=O)NCC(=O)NCC[C@H](N)C(=O)N[C@H](C(=O)N[C@@H](CC(N)=O)C(=O)N[C@@H](CC(C)C)C(=O)N[C@@H](CCCCN)C(=O)N[C@@H](C)C(=O)N[C@@H](CC(C)C)C(=O)N[C@@H](C)C(=O)N[C@@H](C)C(=O)N[C@@H](CC(C)C)C(=O)N[C@@H](C)C(=O)N[C@@H](CCCCN)C(=O)N[C@@H](C)C(=O)N[C@H](C(=O)N[C@@H](CC(C)C)C(N)=O)[C@@H](C)CC)[C@@H](C)CC [NF423]
CHO-K1 cells
  Average RLU/mg (reporter levels post-transfection of mRNA): 556 000 000 RLU/mg

## CCCCCCCCCCCCCCCC(=O)N[C@@H](C)C(=O)NCC(=O)N[C@@H](Cc1ccc(O)cc1)C(=O)N[C@@H](CC(C)C)C(=O)N[C@@H](CC(C)C)C(=O)NCC(=O)NCC[C@H](N)C(=O)N[C@H](C(=O)N[C@@H](CC(N)=O)C(=O)N[C@@H](CC(C)C)C(=O)N[C@@H](CCCCN)C(=O)N[C@@H](C)C(=O)N[C@@H](CC(C)C)C(=O)N[C@@H](C)C(=O)N[C@@H](C)C(=O)N[C@@H](CC(C)C)C(=O)N[C@@H](C)C(=O)N[C@@H](CCCCN)C(=O)N[C@@H](C)C(=O)N[C@H](C(=O)N[C@@H](CC(C)C)C(N)=O)[C@@H](C)CC)[C@@H](C)CC [NF422]
CHO-K1 cells
  Average RLU/mg (reporter levels post-transfection of mRNA): 159 000 000 RLU/mg

## NF72: SEQ ID NO: 15; HHHHHHYHHGO*ILLKALKALAKAIL; control/comparator construct [reference compound]
CHO-K1 cells
  Average RLU/mg (reporter levels post-transfection of mRNA): 78 023 RLU/mg
